According to US9144248B2, “Cinnamamides as savory flavorings” (SYMRISE AG, priority 2011, dated 2015):
Entries after “also recorded” stand apart in the source; their conditions may differ.

Experiments:
Format in all cases: in vivo, human
[1] = Simple profiling of cinnamides dissolved in water, tasting by a group of experts with open discussion
Experimental: The compounds were dissolved in water in the stated concentration and assessed by a group of experts by tasting with open discussion.

[2] = Profiling of cinnamides in a complex base (American beef extract) by 15-25 trained panelists, descriptors scored 0-9, compared with MSG; conditions: for umami taste character compared with monosodium glutamate: comparison base + 0.05 wt. % MSG
Experimental: An American beef extract as the base, a corresponding base mixed with monosodium glutamate and a corresponding base mixed with the cinnamide were in each case administered blind individually to 15-25 trained panelists for profiling. Using the descriptors previously decided upon by discussion (mouth-fill, salty, metallic, meaty, bitter, mouth-watering, barbecued-roasted, sweet, sour, lingering) the strength of these was assessed on a scale of 0 (imperceptible) through 9 (very strong). The individual results of the panelists were averaged.
In the spider chart attached as FIG. 1 the profile of an American beef extract as the base (i) is compared with such a base with the addition of 10 ppm (iii) or 50 ppm rubemamine ([…]) (iv) and with a sample (ii) of such a base with the addition of 0.05 wt. % MSG (monosodium glutamate).
In the spider chart attached as FIG. 2 the profile of an American beef extract as the base (i) is compared with such a base with the addition of 5 ppm (iii) or 10 ppm rubescenamine (compound (3)) (iv) and with a sample (ii) of such a base with the addition of 0.05 wt. % MSG (monosodium glutamate).
The taste of a 0.5% American beef extract as base (i) was compared in a tasting by a panel of trained test subjects with the taste of such a base with 10 ppm (iii) or 50 ppm (iv) rubemamine (1) added, and such a base with 0.05 wt. % MSG added (ii).
The test subjects assessed the strength of the stated flavors by giving a score on a scale of 0 (imperceptible) through 9 (very strong corresponding taste). The mean values of the respective scorings are shown.
The taste of a 0.5% American beef extract as base (i) was compared in a tasting by a panel of trained test subjects with the taste of such a base with 5 ppm (iii) or 10 ppm (iv) rubescenamine (3) added, and such a base with 0.05 wt. % MSG added (ii).

[3] = Profiling of cinnamides in American beef extract base together with monosodium glutamate (enhancing effect), trained panel, descriptors scored 0-9; conditions: for enhancement of the monosodium glutamate effect: sample (iv) versus sample (ii) base + 0.05% MSG, FIG. 3: 20 ppm + 0.0025% monosodium glutamate in beef extract base
Experimental: An American beef extract as the base, a corresponding sauce mixed with monosodium glutamate, a corresponding sauce mixed with the cinnamide and a corresponding base mixed with monosodium glutamate were in each case administered blind individually to 15-25 trained panelists for profiling. Using the descriptors previously decided upon by discussion (mouth-fill, salty, metallic, meaty, bitter, mouth-watering, barbecued-roasted, sweet, sour, lingering) the strength of these was assessed on a scale of 0 (imperceptible) through 9 (very strong). The individual results of the panelists were averaged. […]
Here again (i) a beef extract as the base is compared with (ii) such a base with the addition of 0.05% monosodium glutamate, (iii) such a base with the addition of 0.0025% monosodium glutamate and (iv) such a base with the addition of 0.0025% monosodium glutamate and 5 ppm rubescenamine (3). […]
The test subjects assessed the strength of the stated flavors by giving a score on a scale of 0 (imperceptible) through 9 (very strong corresponding taste). The mean values of the respective scorings are shown. […]

[4] = 5 ppm + 0.0025% monosodium glutamate in beef extract base, listed as rubescenamine (3)

COc1ccc(/C=C/C(=O)NCCc2ccc(OC)c(OC)c2)cc1OC [Compound (1), rubemamine]
Taste profile (concentration in mg/kg) ([1]; 10 mg/kg): Umami (10 mg/kg) | umami taste character compared with monosodium glutamate ([2]; 10 mg/kg test concentration in American beef extract base): umami taste that is very similar to that of monosodium glutamate | enhancement of the monosodium glutamate effect: sample (iv) versus sample (ii) base + 0.05% MSG, FIG. 3 [3]: hardly distinguishable from one another other than a slightly lower sweetness | enhancement of the monosodium glutamate effect: sample (iv) versus sample (ii) base + 0.05% MSG, FIG. 3 ([3]; listed as rubemamine (1)): virtually indistinguishable

N[C@@H](CCC(=O)O)C(=O)[O-].[Na+] [monosodium glutamate, reference compound]
taste profile of sample (iii) versus base (i) without addition, FIG. 3 ([3]; 0.0025% monosodium glutamate alone in beef extract base): perceived as less strong than the sample (i) without the addition; also recorded: perceived only slightly less strongly than sample (i) without the addition

COc1ccc(/C=C/C(=O)NCCc2ccc3c(c2)OCO3)cc1OC [Compound (3), rubescenamine]
Taste profile (concentration in mg/kg) ([1]; 10 mg/kg): Umami, otherwise neutral (10 mg/kg) | umami taste character compared with monosodium glutamate ([2]; 5 mg/kg test concentration in American beef extract base): umami taste that is very similar to that of monosodium glutamate | taste profile, strength of descriptors (scale 0-9), FIG. 2 curve iii ([2]; 5 ppm in American beef extract base): strong effect | taste profile, strength of descriptors (scale 0-9), FIG. 2 curve iv, versus sample (ii) base + 0.05 wt. % MSG ([2]; 10 ppm in American beef extract base): for most descriptors is able to achieve a similarly strong assessment to sample (ii) | enhancement of the monosodium glutamate effect: sample (iv) versus sample (iii) base + 0.0025% MSG, FIG. 4 ([3]; 5 ppm + 0.0025% monosodium glutamate in beef extract base): in respect of virtually all parameters was assessed as stronger than sample (iii) | "salty" parameter: sample (iv) versus sample (ii) base + 0.05% MSG, FIG. 4 [3, 4]: assessed similarly to sample (ii) | enhancement of the monosodium glutamate effect: sample (iv) versus sample (iii) base + 0.0025% MSG, FIG. 4 [3, 4]: assessed more strongly on virtually all parameters than sample (iii)

O=C(/C=C/c1ccccc1)NCCc1ccc2c(c1)OCO2 [Compound (9), zanthomamine]
Taste profile (concentration in mg/kg) ([1]; 50 mg/kg): Somewhat delayed onset of umami effect (50 mg/kg) | enhancement of the monosodium glutamate effect: sample (iv) versus sample (iii) base + 0.0025% MSG, FIG. 5 ([3]; 50 ppm + 0.0025% monosodium glutamate in beef extract base): assessed more strongly on virtually all parameters than sample (iii)
